The results in this text go back to PubChem BioAssay (NCI).

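The compound was tested at five concentrations on cells cultured in 96-well plates, with a 48-hour exposure period. TGI: concentration producing complete growth inhibition.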

Common to all, as to assay: growth of human tumour cells (NCI), 48 h
Assay [1] has as its system EKVX NSCLC.
In assay [2] the test system is HOP-18 NSCLC.
Assay [3] concerns HOP-62 NSCLC.
Assay [4] relates to HT29 colon.
Assay [5] relates to K-562 leukemia.
Assay [6] has as its system M14 melanoma.
Assay [7] concerns SF-268 CNS.
The subject of assay [8] is SN12C renal.
Assay [9] concerns TK-10 renal.
Assay [10] has as its system U251 CNS.

On to `O=C(C(O)c1cn(Cc2ccccc2)c2ccccc12)N1CCCCC1` (stereo not given), for which the TGI in assay [1] is greater than 100 µM; in [2] it was 90 µM; in assay [3] it was greater than 100 µM; in [4], greater than 100 µM; in assay [5] it was greater than 100 µM; in assay [6] it was greater than 100 µM. Besides, the TGI is greater than 100 µM in assay [7], greater than 100 µM in [8], greater than 10 µM in assay [9] and greater than 10 µM in assay [10].
On to `C=CCCCCCCCCCCCC1CCC(CC)N1` (stereo not given), for which the TGI worked out at 31.4 µM in assay [1]; 25.2 µM in assay [2]; 28.5 µM in assay [3]; 14 µM in [4]; 28.1 µM in [5]; 24.6 µM in assay [6]. Moreover, the TGI was 46.6 µM in [7], 24.3 µM in assay [8], 32.1 µM in assay [9] and 25.5 µM in [10].
For `COC(=O)c1c(-c2ccccc2)cc2c3cc(-c4ccccc4)c(C(=O)OC)n3c3ccccc3n12`, the TGI in [1], in assay [2], in assay [3], in assay [4], in [5] and in [6] was greater than 100 µM in each case. For the same compound, the TGI in assay [7], in assay [8], in assay [9] and in assay [10] was greater than 100 µM in each case.
For the compound `CCOc1ccccc1NC(=O)/C=C1\NC(=O)CS1`, the TGI in assay [1], in assay [2], in [3], in assay [4], in [5] and in [6] was greater than 100 µM in each case. The TGI in assay [7], in [8], in [9] and in [10] was greater than 100 µM each time.
Turning to `C=CCc1cc2cccc(OC)c2oc1=O`, the TGI in assay [1], in [2], in [3], in assay [4], in [5] and in assay [6] was greater than 100 µM each time. The TGI in assay [7], in assay [8], in [9] and in [10] was greater than 100 µM each time.
Regarding `CC(C)=CC(C(O)c1ccccc1)S(=O)(=O)c1nccn1C` (stereo not given), the TGI in assay [1], in assay [2], in assay [3], in [4], in assay [5] and in assay [6] was greater than 100 µM each time. In addition, the TGI in assay [7], in assay [8], in assay [9] and in assay [10] was greater than 100 µM each time.
As to `NC(=O)c1c[se]c(C2OC(CO)C(O)C2O)n1` (stereo not given), the TGI in assay [1], in assay [2], in assay [3], in assay [4], in assay [5] and in assay [6] was greater than 100 µM throughout. Also, the TGI in [7], in assay [8], in assay [9] and in assay [10] was greater than 100 µM throughout.
Consider `COc1ccc(-c2c(C3=NCCN3)nnn2-c2ccccc2)cc1`, for which the TGI in [1], in assay [2], in [3], in [4], in assay [5] and in assay [6] was greater than 100 µM throughout. The TGI in assay [7], in assay [8], in assay [9] and in assay [10] was greater than 100 µM throughout.
`CC(=O)O/N=C/c1ncccc1CO`: the TGI in assay [1], in assay [2], in assay [3], in assay [4], in assay [5] and in assay [6] was greater than 100 µM each time. Moreover, the TGI in [7], in [8], in assay [9] and in assay [10] was greater than 100 µM in each case.
In the case of `Cc1cc2nc3c(=O)n(C)c(=O)nc-3n(-c3ccc(Cl)cc3)c2cc1C`, the TGI in [1] was 43.9 µM; in assay [2] it was 19.9 µM; in assay [3] it was 65.1 µM; in [4], 16.1 µM; in assay [5], 34.7 µM; in assay [6] it was 13.9 µM. For the same compound, the TGI in [7] amounted to 36.7 µM; in [8], 18.6 µM; in [9] it was 92 µM; in [10] it was 29.9 µM.
As for `CC(=O)O[C@H]1C(N(C)C(=O)c2ccccc2)CC[C@]2(C)C3CC[C@@]4(C)C(CC(O)[C@@H]4C(C)N(C)C)[C@@H]3CCC12` (stereo not given in full), the TGI in assay [1], in [2], in [3], in [4], in [5] and in assay [6] was greater than 100 µM in each case. The TGI in [7], in [8], in assay [9] and in assay [10] was greater than 100 µM in each case.
